# Test results as given in ChEMBL document CHEMBL1138902, “New 3-alkylamino-4H-thieno-1,2,4-thiadiazine 1,1-dioxide derivatives activate ATP-sensitive potassium channels of pancreatic beta cells” (J Med Chem, 2006).
# pEC50, pIC50: −log10 of the molar value.
# Tests used:
# [1] = tested on: Beta-TC6; assay: Inhibition of glucose-stimulated insulin release in betaTC6 cells; assay type: functional, cell-based; conditions: Mus musculus
# [2] = organism: Rattus norvegicus; assay: Relaxation of precontracted Wistar rat aorta rings; assay type: functional, organism-based; conditions: for pEC50: Rattus norvegicus, Aorta
# [3] = tested on: Beta-TC3; assay: Repolarization of beta-TC3 cells; assay type: functional, cell-based, Mus musculus; conditions: for pEC50 / Emax: Mus musculus, Beta-TC3; for pEC50: read-out: EC50; for EC50: beta-tc3
# [4] = tested on: Beta-TC6; assay: Inhibition of glucose-stimulated insulin release in beta-TC6 cells at 10 uM; assay type: functional, Mus musculus
# [5] = target: T1, Sulfonylurea receptor 1, Kir6.2 (Homo sapiens, UniProt Q09428+Q14654); assay: Repolarization of HEK293 cells expressing Kir6.2/SUR1 KATP channels; assay type: functional, cell-based
# T1 sequence (Q14654 whole entry): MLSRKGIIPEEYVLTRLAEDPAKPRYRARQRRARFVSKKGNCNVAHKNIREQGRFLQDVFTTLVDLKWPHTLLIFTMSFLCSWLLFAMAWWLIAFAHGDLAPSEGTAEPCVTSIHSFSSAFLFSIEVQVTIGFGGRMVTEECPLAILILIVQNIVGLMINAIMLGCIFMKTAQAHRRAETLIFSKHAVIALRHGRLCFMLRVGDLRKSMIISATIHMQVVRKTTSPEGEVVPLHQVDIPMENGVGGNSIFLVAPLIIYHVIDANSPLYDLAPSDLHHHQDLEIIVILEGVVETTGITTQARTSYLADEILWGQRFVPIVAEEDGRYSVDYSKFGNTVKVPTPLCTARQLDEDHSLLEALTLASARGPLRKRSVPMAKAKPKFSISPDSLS
# T1 sequence (Q09428 whole entry): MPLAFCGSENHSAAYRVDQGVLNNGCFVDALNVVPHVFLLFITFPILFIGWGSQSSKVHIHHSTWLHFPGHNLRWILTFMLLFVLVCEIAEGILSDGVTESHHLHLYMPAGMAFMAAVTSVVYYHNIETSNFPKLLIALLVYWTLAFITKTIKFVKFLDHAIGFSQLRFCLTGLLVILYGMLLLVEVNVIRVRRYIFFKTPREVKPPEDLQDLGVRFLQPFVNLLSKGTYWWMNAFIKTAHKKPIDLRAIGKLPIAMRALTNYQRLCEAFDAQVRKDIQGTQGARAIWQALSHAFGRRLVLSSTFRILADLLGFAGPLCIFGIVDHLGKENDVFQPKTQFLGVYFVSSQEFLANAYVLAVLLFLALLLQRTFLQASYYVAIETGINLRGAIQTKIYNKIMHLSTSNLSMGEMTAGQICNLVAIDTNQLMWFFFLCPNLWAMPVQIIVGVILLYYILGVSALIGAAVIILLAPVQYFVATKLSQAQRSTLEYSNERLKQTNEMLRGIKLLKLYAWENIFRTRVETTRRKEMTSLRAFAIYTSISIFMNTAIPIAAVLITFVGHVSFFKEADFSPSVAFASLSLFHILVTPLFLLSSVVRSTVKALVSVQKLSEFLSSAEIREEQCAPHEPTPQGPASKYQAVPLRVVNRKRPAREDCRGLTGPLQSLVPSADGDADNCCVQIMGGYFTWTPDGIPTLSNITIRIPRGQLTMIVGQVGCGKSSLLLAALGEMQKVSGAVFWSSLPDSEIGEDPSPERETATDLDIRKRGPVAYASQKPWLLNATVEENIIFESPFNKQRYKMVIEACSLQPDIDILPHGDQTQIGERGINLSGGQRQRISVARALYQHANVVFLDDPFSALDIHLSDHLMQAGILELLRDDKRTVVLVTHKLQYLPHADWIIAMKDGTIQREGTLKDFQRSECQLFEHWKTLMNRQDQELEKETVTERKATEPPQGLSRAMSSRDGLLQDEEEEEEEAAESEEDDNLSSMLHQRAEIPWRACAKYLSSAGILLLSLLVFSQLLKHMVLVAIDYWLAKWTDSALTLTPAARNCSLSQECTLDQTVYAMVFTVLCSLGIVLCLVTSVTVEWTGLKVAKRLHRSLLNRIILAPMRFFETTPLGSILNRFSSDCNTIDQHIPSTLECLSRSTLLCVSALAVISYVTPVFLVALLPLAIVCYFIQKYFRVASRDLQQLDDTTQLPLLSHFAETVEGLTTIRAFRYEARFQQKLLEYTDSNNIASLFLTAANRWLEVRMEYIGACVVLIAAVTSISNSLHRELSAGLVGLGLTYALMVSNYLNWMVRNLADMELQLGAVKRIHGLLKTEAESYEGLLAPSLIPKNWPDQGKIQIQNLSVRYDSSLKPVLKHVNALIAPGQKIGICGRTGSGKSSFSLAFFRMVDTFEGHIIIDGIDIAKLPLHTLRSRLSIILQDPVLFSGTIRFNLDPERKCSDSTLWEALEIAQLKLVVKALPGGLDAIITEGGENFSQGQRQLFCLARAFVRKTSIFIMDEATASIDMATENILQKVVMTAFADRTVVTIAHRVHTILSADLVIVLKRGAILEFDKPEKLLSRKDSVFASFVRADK
# [6] = organism: Rattus norvegicus; assay: Inhibition of glucose-stimulated insulin release in Wistar rat islets; assay type: functional, organism-based
# [7] = tested on: Rattus norvegicus; assay: Reduction in plasma insulin level in po dosed Zucker obese rat after 2 hrs; assay type: functional; conditions: read-out: ID50 (the source's name)
# [8] = Tmax in Sprague-Dawley rat at 2.19 mg/kg, po or 1.22 mg/kg, iv; assay type: ADME, organism-based; conditions: in vivo
# [9] = Cmax in Sprague-Dawley rat at 2.19 mg/kg, po; assay type: ADME, organism-based; design: dose 2.19 mg/kg, route oral; conditions: in vivo
# [10] = Half life in Sprague-Dawley rat at 2.19 mg/kg, po; assay type: ADME, organism-based; design: dose 2.19 mg/kg, route oral; conditions: in vivo
# [11] = tested on: Rattus norvegicus; assay: Reduction in plasma insulin level in anaesthetized Sprague-Dawley rat at 3 mg/kg, iv; assay type: functional
# [12] = Oral bioavailability in Sprague-Dawley rat at 2.19 mg/kg, po; assay type: ADME, organism-based; conditions: in vivo
# [13] = Clearance in Sprague-Dawley rat at 2.19 mg/kg, po or 1.22 mg/kg, iv; assay type: ADME, organism-based; conditions: in vivo
# [14] = Half life in Sprague-Dawley rat at 2.48 mg/kg, po; assay type: ADME, organism-based; design: dose 2.48 mg/kg, route oral; conditions: in vivo
# [15] = Clearance in Sprague-Dawley rat at 2.48 mg/kg, po or 1.08 mg/kg, iv; assay type: ADME, organism-based; conditions: in vivo
# [16] = Cmax in Sprague-Dawley rat at 2.48 mg/kg, po; assay type: ADME, organism-based; design: dose 2.48 mg/kg, route oral; conditions: in vivo
# [17] = Oral bioavailability in Sprague-Dawley rat at 2.48 mg/kg, po; assay type: ADME, organism-based; conditions: in vivo
# [18] = Tmax in Sprague-Dawley rat at 2.48 mg/kg, po or 1.08 mg/kg, iv; assay type: ADME, organism-based; conditions: in vivo
# [19] = Plasma concentration in Sprague-Dawley rat after 30 mins; assay type: ADME, organism-based
# [20] = Half life in Sprague-Dawley rat at 1.89 mg/kg, po; assay type: ADME, organism-based; design: dose 1.89 mg/kg, route oral; conditions: in vivo
# [21] = Tmax in Sprague-Dawley rat at 1.89 mg/kg, po or 0.89 mg/kg, iv; assay type: ADME, organism-based; conditions: in vivo
# [22] = Oral bioavailability in Sprague-Dawley rat at 1.89 mg/kg, po; assay type: ADME, organism-based; conditions: in vivo
# [23] = Cmax in Sprague-Dawley rat at 1.89 mg/kg, po; assay type: ADME, organism-based; design: dose 1.89 mg/kg, route oral; conditions: in vivo
# [24] = Clearance in Sprague-Dawley rat at 1.89 mg/kg, po or 0.89 mg/kg, iv; assay type: ADME, organism-based; conditions: in vivo
# [25] = tested on: Rattus norvegicus; assay: Oral bioavailability in Sprague-Dawley rat at 2 mg/kg, po; assay type: ADME, organism-based; conditions: in vivo
# [26] = Clearance in Sprague-Dawley rat at 2 mg/kg, po or 0.5 mg/kg, iv; assay type: ADME, organism-based; conditions: in vivo
# [27] = Tmax in Sprague-Dawley rat at 2 mg/kg, po or 0.5 mg/kg, iv; assay type: ADME, organism-based; conditions: in vivo
# [28] = Half life in Sprague-Dawley rat at 2 mg/kg, po; assay type: ADME, organism-based; design: dose 2 mg/kg, route oral; conditions: in vivo
# [29] = Cmax in Sprague-Dawley rat at 2 mg/kg, po; assay type: ADME, organism-based; design: dose 2 mg/kg, route oral; conditions: in vivo
# [30] = Cmax in Sprague-Dawley rat at 2.3 mg/kg, po; assay type: ADME, organism-based; design: dose 2.3 mg/kg, route oral; conditions: in vivo
# [31] = Clearance in Sprague-Dawley rat at 2.3 mg/kg, po or 1.24 mg/kg, iv; assay type: ADME, organism-based; conditions: in vivo
# [32] = target: T1, Sulfonylurea receptor 1, Kir6.2; assay: Displacement of [3H]glibenclamide from human Kir6.2/SUR1 expressed in HEK293 cells; assay type: cell-based
# [33] = Tmax in Sprague-Dawley rat at 2.3 mg/kg, po or 1.24 mg/kg, iv; assay type: ADME, organism-based; conditions: in vivo
# [34] = target: T1, Sulfonylurea receptor 1, Kir6.2; assay: Displacement of [3H]glibenclamide from human Kir6.2/SUR1 expressed in HEK293 cells in presence of 2 mM ATP; assay type: cell-based
# [35] = Oral bioavailability in Sprague-Dawley rat at 2.3 mg/kg, po; assay type: ADME, organism-based; conditions: in vivo
# [36] = Half life in Sprague-Dawley rat at 2.3 mg/kg, po; assay type: ADME, organism-based; design: dose 2.3 mg/kg, route oral; conditions: in vivo
Structure (SMILES),pEC50 [1],pEC50 [2],pEC50 [3],Efficacy [4],further results
CC1(NC2=NS(=O)(=O)c3sccc3N2)CC1,6.72,5.16,< 4.52,19%,Efficacy [2]: 18%
O=S1(=O)NC(NC2(c3ccccc3)CC2)=Nc2cc(Cl)sc21,5.57,3.74,6.32,66%,pEC50 [5]: 6.09; pEC50 [6]: 6.96
CC1(NC2=NS(=O)(=O)c3cc(Cl)sc3N2)CC1,,,,,EC50 [3]: Not Active
O=S1(=O)N=C(NC2(C(F)(F)F)CC2)Nc2cc(Cl)sc21,5.85,4.40,6.40,76%,ED50 [7]: 8 mg/kg; Tmax [8]: 0.5 h; Cmax [9]: 533 ng/mL; half-life [10]: 5.5 h; inhibition in vivo at 3 mg/kg [11]: 90%; bioavailability [12]: 70%; pEC50 [5]: 6.28; clearance [13]: 5 mL/min/kg; pEC50 [6]: 6.80
COc1ccc(C2(NC3=NS(=O)(=O)c4sc(Cl)cc4N3)CC2)cc1,5.45,5.54,6.30,69%,
CC1(NC2=NS(=O)(=O)c3scc(Br)c3N2)CC1,5.17,,,5%,EC50 [3]: Not Active
CC1(NC2=NS(=O)(=O)c3sc(Br)cc3N2)CC1,6.51,3.88,6.85,81%,ED50 [7]: < 3 mg/kg; half-life [14]: 2.6 h; clearance [15]: 15 mL/min/kg; Cmax [16]: 885 ng/mL; bioavailability [17]: 96%; inhibition in vivo at 3 mg/kg [11]: 97%; Tmax [18]: 1.5 h; pEC50 [5]: 6.80; concentration at 0.5 h [19]: 340 ng/mL; pEC50 [6]: 7.70
CC1(NC2=NS(=O)(=O)c3sc(Cl)cc3N2)CC1 [TIFENAZOXIDE],6.60,,,73%,half-life [20]: 4.17 h; Tmax [21]: 0.5 h; bioavailability [22]: 103%; ED50 [7]: 1.5 mg/kg; inhibition in vivo at 3 mg/kg [11]: 85%; Cmax [23]: 1230 ng/mL; clearance [24]: 7.02 mL/min/kg
CC1(NC2=NS(=O)(=O)c3sc(Cl)cc3N2)CCC1,7.70,,7.70,92%,
CC(C)NC1=NS(=O)(=O)c2cc(Cl)sc2N1,4.70,< 3.52,5.30,16%,
O=S1(=O)N=C(NCC(F)(F)F)Nc2cc(Cl)sc21,6.82,3.76,5.51,36%,
C[C@@H](NC1=NS(=O)(=O)c2sc(Cl)cc2N1)c1ccccc1,6.00,4.62,6.30,68%,
O=S1(=O)NC(NCc2ccccc2)=Nc2cc(Cl)sc21,5.21,3.88,5.44,30%,Emax [3]: < 60%
C[C@H](NC1=NS(=O)(=O)c2sc(Cl)cc2N1)c1ccccc1,4.89,4.46,5.46,28%,Emax [3]: < 60%
CC1=Nc2ccc(Cl)cc2S(=O)(=O)N1 [DIAZOXIDE],4.64,,4.86,25%,F [25]: 154%; ED50 [7]: > 30 mg/kg; clearance [26]: 8 mL/min/kg; inhibition in vivo at 3 mg/kg [11]: 53%; Tmax [27]: 1 h; half-life [28]: 1.32 h; Cmax [29]: 1450 ng/mL; pEC50 [6]: 4.69
C[C@H](NC1=NS(=O)(=O)c2sc(Cl)cc2N1)c1ccc(Br)cc1,5.68,4.02,5.70,69%,
CC(C)(NC1=NS(=O)(=O)c2sc(Cl)cc2N1)c1ccccc1,6.62,3.99,6.89,76%,Cmax [30]: 2590 ng/mL; clearance [31]: 7.3 mL/min/kg; ED50 [7]: 4 mg/kg; pIC50 [32]: 3.44; Tmax [33]: 0.25 h; inhibition in vivo at 3 mg/kg [11]: 86%; pIC50 [34]: 7.09; pEC50 [5]: 6.74; bioavailability [35]: 82%; half-life [36]: 0.867 h; pEC50 [6]: 7.40
CN1C(NC2(C)CC2)=NS(=O)(=O)c2sc(Cl)cc21,6.13,,,23%,EC50 [3]: Not Active
O=S1(=O)N=C(NC2(c3cccc(Cl)c3)CCC2)Nc2cc(Cl)sc21,4.87,4.86,6.80,40%,
CC1(NC2=NS(=O)(=O)c3scc(Cl)c3N2)CC1,6.55,,,2%,EC50 [3]: Not Active
